Converted amounts (≈) assume the structure as drawn.
What was measured:
C. albicans ATCC 10231 = test: Antifungal broth microdilution (CLSI M27-A3), growth inhibition; type: cell-based, Candida albicans
Protocol: (§1) The antifungal properties of compounds 1–24 against two clinical important fungal species, C. albicans ATCC 10231 and C. neoformans ATCC 32264 were investigated. Results were expressed as the percentages of inhibition of each fungus in the range 250–3.9 μg∙mL^−1 by using the standardized microbroth dilution method M-27A3 of Clinical and Laboratory Standards Institute which assures reliable and reproducible results.
(§2) For the antifungal evaluation, standardized strains from the American Type Culture Collection (ATCC), Rockville, MD, USA, were used. The microorganisms included yeasts (Candida albicans ATCC 10231 and Cryptococcus neoformans ATCC 32264). Strains were grown on Sabouraud-chloramphenicol agar slants for 48 h at 30 °C, maintained on slopes of Sabouraud-dextrose agar (SDA, Oxoid), and subcultured every 15 days to prevent pleomorphic transformations. Inocula of cell or spore suspensions were obtained according to reported procedures and adjusted to 1–5 × 10^3 cells/spores with colony forming units (CFU)/mL [29].
(§3) Broth microdilution techniques were performed in 96-well microplates according to the Clinical and Laboratory Standards Institute Reference Method for Broth Dilution Antifungal Susceptibility Testing of Yeasts, Approved Standard M27-A3 [29]. For the assay, compound test wells (CTWs) were prepared with stock solutions of each compound in DMSO (maximum concentration ≤1%), diluted with RPMI-1640, to final concentrations of 250–3.9 μg∙mL^−1. An inoculum suspension (100 μL) was added to each well (final volume in the well = 200 μL). A growth control well (GCW) (containing medium, inoculum, and the same amount of DMSO used in a CTW, but compound-free) and a sterility control well (SCW) (sample, medium, and sterile water instead of inoculum) were included for each fungus tested. Microtiter trays were incubated in a moist, dark chamber at 30 °C for 48 h for both yeasts. Microplates were read in a VERSA Max microplate reader (Molecular Devices, Sunnyvale, CA, USA). Amphotericin B (Sigma-Aldrich) was used as positive control. Tests were performed in triplicate. Reduction of growth for each compound concentration was calculated as follows: % of inhibition = 100 − (OD 405 CTW − OD 405 SCW)/(OD 405 GCW − OD 405 SCW). The means ± SEM were the results of triplicate tests. Three endpoints were defined from the assay explained above and the dose-response curves. Minimum Inhibitory concentration (MIC) resulting in total fungal growth inhibition was named MIC100 while MIC50 was defined as the minimum concentration that inhibits 50% of the fungal growth.

C. neoformans ATCC 32264 = test: as above; type: cell-based, Cryptococcus neoformans
Protocol: as §1, §2, §3

SMILES | Inhibition percentage against C. albicans ATCC 10231 (C. albicans ATCC 10231; 3.9 μg∙mL^−1, 48 h) [%] | Inhibition percentage against C. albicans ATCC 10231 (C. albicans ATCC 10231; 7.8 μg∙mL^−1, 48 h) [%] | Inhibition percentage against C. albicans ATCC 10231 (C. albicans ATCC 10231; 15.6 μg∙mL^−1, 48 h) [%] | Inhibition percentage against C. albicans ATCC 10231 (C. albicans ATCC 10231; 62.5 μg∙mL^−1, 48 h) [%] | Inhibition percentage against C. albicans ATCC 10231 (C. albicans ATCC 10231; 125 μg∙mL^−1, 48 h) [%] | Inhibition percentage against C. albicans ATCC 10231 (C. albicans ATCC 10231; 250 μg∙mL^−1, 48 h) [%] | Inhibition percentage against C. albicans ATCC 10231 (C. albicans ATCC 10231; 31. μg∙mL^−1, 48 h) [%] | MIC50 (minimum concentration to inhibit 50% of fungal growth), C. albicans (C. albicans ATCC 10231; C. albicans ATCC 10231) [µg/mL] | Inhibition percentage against C. neoformans ATCC 32264 (C. neoformans ATCC 32264; 3.9 μg∙mL^−1, 48 h) [%] | Inhibition percentage against C. neoformans ATCC 32264 (C. neoformans ATCC 32264; 7.8 μg∙mL^−1, 48 h) [%] | Inhibition percentage against C. neoformans ATCC 32264 (C. neoformans ATCC 32264; 15.6 μg∙mL^−1, 48 h) [%] | Inhibition percentage against C. neoformans ATCC 32264 (C. neoformans ATCC 32264; 31.2 μg∙mL^−1, 48 h) [%] | Inhibition percentage against C. neoformans ATCC 32264 (C. neoformans ATCC 32264; 62.5 μg∙mL^−1, 48 h) [%] | Inhibition percentage against C. neoformans ATCC 32264 (C. neoformans ATCC 32264; 125 μg∙mL^−1, 48 h) [%] | Inhibition percentage against C. neoformans ATCC 32264 (C. neoformans ATCC 32264; 250 μg∙mL^−1, 48 h) [%] | MIC50 (minimum concentration to inhibit 50% of fungal growth), C. neoformans (C. neoformans ATCC 32264; C. neoformans ATCC 32264) [µg/mL] | also measured
CC(C)c1cc2c(c(OC(=O)CCc3cn(Cc4ccc(Br)cc4)nn3)c1OC(=O)CCc1cn(Cc3ccc(Br)cc3)nn1)C13CCCC(C)(C)C1CC2OC3=O (stereo not drawn) [Compound 21, (7β)-11,12-O-(3-(1-(4-bromobenzyl)-1H-1,2,3-triazol-4-yl)-propanoyloxy)-7,20-epoxyabieta-8,11,13-trien-20-one] | 0.0 | 0.0 | 2.6 ± 0.6 | 4.4 ± 1.3 | 6.6 ± 1.1 | 8.6 ± 2.0 | 3.5 ± 0.6 | >250 | 1.2 ± 0.6 | 6.7 ± 0.3 | 17.9 ± 0.2 | 18.9 ± 0.7 | 19.2 ± 0.2 | 28.8 ± 0.4 | 40.0 ± 0.3 | >250 | 
CC(C)c1cc2c(c(OC(=O)CCCc3cn(Cc4ccc([N+](=O)[O-])cc4)nn3)c1OC(=O)CCCc1cn(Cc3ccc([N+](=O)[O-])cc3)nn1)C13CCCC(C)(C)C1CC2OC3=O (stereo not drawn) [Compound 24, (7β)-11,12-O-(4-(1-(4-nitrobenzyl)-1H-1,2,3-triazol-4-yl)-butanoyloxy)-7,20-epoxyabieta-8,11,13-trien-20-one] | 0.0 | 0.0 | 0.0 | 4.8 ± 0.6 | 14.3 ± 2.0 | 29.8 ± 1.9 | 3.4 ± 0.5 | >250 | 4.9 ± 1.4 | 15.4 ± 0.1 | 21.0 ± 0.1 | 24.3 ± 0.5 | 27.3 ± 0.7 | 31.7 ± 1.6 | 45.8 ± 2.0 | >250 | 
C[C@@H]1[C@H](O)[C@@H](C)/C=C/C=C/C=C/C=C/C=C/C=C/C=C/[C@H](O[C@@H]2O[C@H](C)[C@@H](O)[C@H](N)[C@@H]2O)C[C@@H]2O[C@](O)(C[C@@H](O)C[C@@H](O)[C@H](O)CC[C@@H](O)C[C@@H](O)CC(=O)O[C@H]1C)C[C@H](O)[C@H]2C(=O)O [Amph B, amphotericin B, reference compound] |  |  |  |  |  |  |  |  |  |  |  |  |  |  |  |  | inhibition at 3.9 µg/mL (C. albicans ATCC 10231; Candida albicans, ATCC10231, 3.9 μg∙mL^−1, 48 h, read-out: Inhibition percentage against C. albicans ATCC 10231): 100%; inhibition at 7.8 µg/mL (C. albicans ATCC 10231; Candida albicans, ATCC10231, 7.8 μg∙mL^−1, 48 h, read-out: Inhibition percentage against C. albicans ATCC 10231): 100%; inhibition at 15.6 µg/mL (C. albicans ATCC 10231; Candida albicans, ATCC10231, 15.6 μg∙mL^−1, 48 h, read-out: Inhibition percentage against C. albicans ATCC 10231): 100%; inhibition at 62.5 µg/mL (C. albicans ATCC 10231; Candida albicans, ATCC10231, 62.5 μg∙mL^−1, 48 h, read-out: Inhibition percentage against C. albicans ATCC 10231): 100%; inhibition at 125 µg/mL (C. albicans ATCC 10231; Candida albicans, ATCC10231, 125 μg∙mL^−1, 48 h, read-out: Inhibition percentage against C. albicans ATCC 10231): 100%; inhibition at 250 µg/mL (C. albicans ATCC 10231; Candida albicans, ATCC10231, 250 μg∙mL^−1, 48 h, read-out: Inhibition percentage against C. albicans ATCC 10231): 100%; MIC50 (C. albicans ATCC 10231; Candida albicans, ATCC10231, C. albicans ATCC 10231, read-out: MIC50 (minimum concentration to inhibit 50% of fungal growth), C. albicans): 0.25 µg/mL (≈ 0.271 µM); inhibition at 3.9 µg/mL (C. neoformans ATCC 32264; Cryptococcus neoformans, ATCC32264, 3.9 μg∙mL^−1, 48 h, read-out: Inhibition percentage against C. neoformans ATCC 32264): 100%; inhibition at 7.8 µg/mL (C. neoformans ATCC 32264; Cryptococcus neoformans, ATCC32264, 7.8 μg∙mL^−1, 48 h, read-out: Inhibition percentage against C. neoformans ATCC 32264): 100%; inhibition at 15.6 µg/mL (C. neoformans ATCC 32264; Cryptococcus neoformans, ATCC32264, 15.6 μg∙mL^−1, 48 h, read-out: Inhibition percentage against C. neoformans ATCC 32264): 100%; inhibition at 31.2 µg/mL (C. neoformans ATCC 32264; Cryptococcus neoformans, ATCC32264, 31.2 μg∙mL^−1, 48 h, read-out: Inhibition percentage against C. neoformans ATCC 32264): 100%; inhibition at 62.5 µg/mL (C. neoformans ATCC 32264; Cryptococcus neoformans, ATCC32264, 62.5 μg∙mL^−1, 48 h, read-out: Inhibition percentage against C. neoformans ATCC 32264): 100%; inhibition at 125 µg/mL (C. neoformans ATCC 32264; Cryptococcus neoformans, ATCC32264, 125 μg∙mL^−1, 48 h, read-out: Inhibition percentage against C. neoformans ATCC 32264): 100%; inhibition at 250 µg/mL (C. neoformans ATCC 32264; Cryptococcus neoformans, ATCC32264, 250 μg∙mL^−1, 48 h, read-out: Inhibition percentage against C. neoformans ATCC 32264): 100%; MIC50 (C. neoformans ATCC 32264; Cryptococcus neoformans, ATCC32264, C. neoformans ATCC 32264, read-out: MIC50 (minimum concentration to inhibit 50% of fungal growth), C. neoformans): 0.5 µg/mL (≈ 0.541 µM)
CC(C)c1cc2c(c(OC(=O)CCc3cn(Cc4ccccc4)nn3)c1OC(=O)CCc1cn(Cc3ccccc3)nn1)C13CCCC(C)(C)C1CC2OC3=O (stereo not drawn) [Compound 19, (7β)-11,12-O-(3-(1-benzyl-1H-1,2,3-triazol-4-yl)-propanoyloxy)-7,20-epoxyabieta-8,11,13-trien-20-one] | 0.7 ± 0.3 | 3.2 ± 0.1 | 3.2 ± 0.1 | 11.9 ± 1.0 | 21.1 ± 1.0 | 37.8 ± 0.5 | 4.6 ± 1.8 | >250 | 0.0 | 0.0 | 0.0 | 0.0 | 3.3 ± 1.1 | 7.1 ± 2.0 | 31.3 ± 1.6 | >250 | 
COC(=O)C12CCCC(C)(C)C1CCc1cc(C(C)C)c(OC(=O)CCc3cn(CSc4ccccc4)nn3)c(OC(=O)CCc3cn(CSc4ccccc4)nn3)c12 (stereo not shown) [Compound 9, Methyl(11,12-O-(3-(((1-phenylthio)methyl)-1H-1,2,3-triazol-4-yl)-propanoyloxy)-abieta-8,11,13-triene)-20-oate] | 0.0 | 0.0 | 3.5 ± 0.3 | 9.4 ± 0.7 | 19.2 ± 0.1 | 15.9 ± 1.2 | 4.7 ± 0.1 | >250 | 0.0 | 5.1 ± 0.7 | 7.3 ± 0.4 | 13.7 ± 1.5 | 23.4 ± 1.3 | 53.6 ± 2.6 | 62.4 ± 3.8 | 125 | 

Source: paper PMC6272684, “Synthesis, Antiproliferative and Antifungal Activities of 1,2,3-Triazole-Substituted Carnosic Acid and Carnosol Derivatives” (Molecules, 2015)
